Columns and labels:
[1] = system: deubiquitinating enzymes (DUBs); experiment: DUB activity (Z-LRGG-AMC cleavage) in lysates of treated MM.1S cells; type: cell-based; details: for Vmax / effect on DUB activity vs DMSO control / Km / n (Hill coefficient): 16 h; for effect of increasing concentration on DUB activity (normalized Vmax): 1, 10, 30 μg/mL, regression fit
Experimental: (§1) OPM2 cells were maintained in RPMI 1640 media supplemented with 12% FBS, 21.8 mM glucose, 8.6 mM HEPES (pH 7.4) and 1.0 mM sodium pyruvate. MM.1S cell line were maintained in RPMI 1640 media supplemented with 10% FBS. The cells were all cultured in T175 flasks (VWR, Radnor, Pa.). All media components were from Corning, Atlanta, Ga. unless otherwise noted. To test the effect of the ethanolic extract and bioactive compounds on DUB activity, cells were exposed to a 16-h pretreatment with 10 μg/mL of PMI-5011 and 1, 10, 30 μg/mL concentrations of DMC-1, DMC-2, KOE, and davidigenin before lysing the cells for experimentation. All compounds were reconstituted in DMSO to obtain stock concentrations, which was further diluted in culture media to obtain the desired experimental concentrations. For vehicle control, a subpopulation of cells was treated with pure DMSO diluted in a similar manner for the same duration. Upon treatment, cell lysates (both OPM2 and MM.1S) were generated by harvesting 1×10^6 cells/mL, followed by washing 2× and pelleting in phosphate buffered saline (PBS; 137 mM NaCl, 10 mM Na2HPO4, […], and 1.75 mM KH2PO4 at pH 7.4). The cell pellet was re-suspended in an approximately equivalent volume of M-PER to the volume of the cell pellet (1000-2000 μL) then vortexed for 10 min at room temperature. Following this, the mixture was centrifuged at 14,000×g for 15 min at 4° C. and the supernatant transferred to a centrifuge tube and stored on ice until use. Total protein concentration was determined using a NanoDrop 2000c (Thermo Scientific, Madison, Wis.).
(§2) The commercial DUB reporter, Z-LRGG-AMC (substrate) (SEQ ID NO: 1) was reconstituted in DMSO to obtain a final stock concentration of 1.44 mM. This stock reporter was diluted as needed in assay buffer (50 mM HEPES, pH 7.4, 150 mM NaCl, 2 mM DTT, and 0.02% Tween-20) supplemented with 4 mg/mL cell lysates (source of DUBs) to reach the desired reporter concentration with a final volume of 100 μL in a 96-well plate. OPM2 and MM.1S cell lysates from different treatments (10 μg/mL of PMI-5011; 1, 10, and 30 μg/mL of DMC-1, DMC-2, KOE, davidigenin and control vehicle DMSO) and C2C12 cell lysates were used to interrogate the effect of the ethanolic extract and selected bioactive compounds on DUB activity. Reporter only and lysates only (noise/background) samples were included in the 96-well plate to confirm that the rates observed were due to DUB-mediated hydrolysis initiated by the cell lysates. The 96-well plate was maintained at a temperature of 30° C. in the dark for the duration of the experiment. The fluorescence signals emitted as a result of DUB-mediated cleavage of AMC (λex=355 nm and λem=460 nm) were quantified using a Wallac 1420 VICTOR2 multilabel HTS counter fluorometry (Perkin Elmer (Waltham, Mass.). Readings were collected every 30 min for 6 h. The normalized signals were obtained by comparing the treatment with noise and background fluorescence values which were then statistically analyzed for their significance. Each data point represents triplicate data points from duplicate experiments. A calibration curve was generated for known concentrations of AMC to correlate the fluorescence signal (AU) to concentration (μM). The approximate concentration of free fluorophore was used to calculate reaction rates (μM/min) for each substrate concentration using linear regression analysis.
(§3) All data visualization, interpretation and curve-fittings were performed using Origin Pro (OriginLab, Northampton, MA) while statistical analyses of experimental data were carried out using SAS 9.4 (SAS Solutions). The analyses of enzyme-substrate reactions in all cell lysates started with scatter plotting the fluorometry signals (p,M) measured for each substrate concentration against time (min). Fluorescence signals measured for each substrate concentration remained stable during the first 30 min, indicating there was a 30-minute lag period before reaction initiation. […]

[2] = MTT cellular viability assay, OPM2; type: cell-based; details: human, OPM2 cells, read-out: percentage of viable cells
Experimental: (§4) The effect of PMI-5011 and bioactive compounds on the viability of cells was tested using a standard colorimetric MTT assay. The MTT Cell Proliferation Assay Kit was purchased from VWR, Radnor, Pa. MM.1S and OPM2 cells were treated with 10 μg/mL of PMI-5011 and 1, 10, and 30 μg/mL of DMC-1, DMC-2, KOE and davidigenin and plated at a density of 10^6 cells/mL in a 96-well plate with each well containing 250 μL of the sample. The plated cells were then incubated at 37° C. for 16 h. 10 μg/mL for PMI-5011 and a 16-h treatment period was used in this study based on previous findings by Yu et al.^24 Parallel plates were prepared for positive and negative solvent vehicle control with the same volume of DMSO and ethanol as for the treated cells. On the day of the experiment, the 96-well plates were centrifuged at 1000×g at 4° C. for 5 min in a microplate compatible centrifuge. The media was discarded and 50 μL of serum-free media and 50 μL of the MTT reagent were added into each well. For a background control, 50 μL of the MTT reagent was added into a well containing media only (no cells). The plate was incubated at 37° C. for 3 h in the dark. After incubation, 150 μL of the MTT solvent was added into each well. The plate was wrapped in a foil and placed on an orbital shaker for 15 min. Finally, the absorbance was measured at λex=544 nm and λem=590 nm using a Wallac 1420 VICTOR2 multilabel HTS counter fluorometry (Perkin Elmer (Waltham, Mass.). The percentage viable cells was obtained by Eq. 1.
(§5) % Viable Cells=S-N/C-N×100 (Eq. 1)
(§6) Where, S denotes raw absorbance values from samples, N denotes average absorbance value of the background control and C denotes the highest average absorbance value of positive vehicle control. The obtained percentage cytotoxicity values were then statistically analyzed for their significance. Each data point represents triplicate data points from duplicate experiments. The effect of PMI-5011 and the selected bioactive compounds on C2C12 cell viability has previously been reported.^24

[3] = MTT cellular viability assay, MM.1S; type: cell-based; details: human, MM.1S cells, read-out: percentage of viable cells
Experimental: as §4, §5, §6

[4] = system: deubiquitinating enzymes (DUBs); experiment: DUB activity (Z-LRGG-AMC cleavage) in lysates of treated OPM2 cells; type: cell-based; details: for Vmax / effect on DUB activity vs DMSO control / Km / n (Hill coefficient): 16 h; for effect of increasing concentration on DUB activity (normalized Vmax): 1, 10, 30 μg/mL, regression fit
Experimental: as §1, §2, §3

DUB = experiment: Experiment 2: DUB reporter Z-LRGG-AMC with control, 5011, IU1 and KOE lysates; type: biochemical; details: lysate 4 mg/mL
Experimental: Peptide used was the commercial DUB reporter [Z-LRGG-AMC (SEQ ID NO: 1)] at multiple concentration [50-150 um]. 640 μL protein at 10 mg/mL for each set was given. Final protein concentration in micro-wells was 4 mg/mL. Peptide was incubated with control, 5011 treated, 25 uM IU1, 50 uM IU1 and KOE in DUB assay buffer. Fluorometric readings were taken at different time points in plate reader. Measured at [Em 460/Ex 355]. Fluorescent signals were converted to μM/min using a calibration curve for the AMC fluorophore. Rates were plotted vs. substrate concentration (Z-LRGG-AMC peptide (SEQ ID NO: 1)) (FIG. 7).

[5] = Table 2, OPM-2, 1 μg/mL, in µM/min
[6] = Table 2, OPM-2, 10 μg/mL, in µM/min
[7] = Table 2, OPM-2, 30 μg/mL, in µM/min

COc1ccc(C(=O)CCc2ccc(O)cc2)c(O)c1 [DMC-1, 1-(2-hydroxy-4-methoxyphenyl)-3-(4-hydroxyphenyl)propan-1-one]
Vmax ([1]; 1 μg/mL): 7.03 ± 1.10 µM/min
effect on DUB activity vs DMSO control ([1]; 1 μg/mL): significantly inhibiting
Vmax ([1]; 10 μg/mL): 9.19 ± 0.78 µM/min
effect on DUB activity vs DMSO control ([1]; 10 μg/mL): significantly inhibiting
Vmax ([1]; 30 μg/mL): 12.91 ± 1.45 µM/min
effect on DUB activity vs DMSO control ([1]; 30 μg/mL): significantly enhanced
effect of increasing concentration on DUB activity (normalized Vmax) [1]: positive linear effect
Km ([1]; Table 2, 1 μg/mL): 21 µM
Vmax ([1]; Table 2, 1 μg/mL): 0.00703 µM/min
n (Hill coefficient) ([1]; Table 2, 1 μg/mL): 1.33
Km ([1]; Table 2, 10 μg/mL): 26 µM
Vmax ([1]; Table 2, 10 μg/mL): 0.00919 µM/min
n (Hill coefficient) ([1]; Table 2, 10 μg/mL): 1.64
Km ([1]; Table 2, 30 μg/mL): 29.3 µM
Vmax ([1]; Table 2, 30 μg/mL): 0.0129 µM/min
n (Hill coefficient) ([1]; Table 2, 30 μg/mL): 1.07
viability at 16 h, 1 μg/mL [2]: ~100%
viability at 16 h, 30 μg/mL [2]: ~60%
viability at 16 h, 1 μg/mL [3]: ~95%
viability at 16 h, 30 μg/mL [3]: ~55%
Vmax ([4]; OPM2, 1 μg/mL): 33.06 ± 5.08 µM/min
effect on DUB activity vs DMSO control ([4]; OPM2, 1 μg/mL): significantly inhibiting
Vmax ([4]; OPM2, 10 μg/mL): 27.93 ± 4.80 µM/min
effect on DUB activity vs DMSO control ([4]; OPM2, 10 μg/mL): significantly inhibiting
Vmax ([4]; OPM2, 30 μg/mL): 233.44 ± 27.31 µM/min
effect on DUB activity vs DMSO control ([4]; OPM2, 30 μg/mL): significantly enhanced
effect of increasing concentration on DUB activity (normalized Vmax) ([4]; OPM2): exponential increase
Km ([4]; Table 2, OPM-2, 1 μg/mL): 61.4 µM
n (Hill coefficient) ([4]; Table 2, OPM-2, 1 μg/mL): 1.29
Vmax [4, 5]: 33.06±
Km ([4]; Table 2, OPM-2, 10 μg/mL): 46.3 µM
n (Hill coefficient) ([4]; Table 2, OPM-2, 10 μg/mL): 1.40
Vmax [4, 6]: 27.93
Km ([4]; Table 2, OPM-2, 30 μg/mL): 140 µM
n (Hill coefficient) ([4]; Table 2, OPM-2, 30 μg/mL): 0.93
Vmax [4, 7]: 233.44

Cc1cc(C(=O)CN2CCCC2)c(C)n1-c1ccc(F)cc1 [IU1]
effect on DUB activity vs control (DUB; 25 μM): inhibit
effect on DUB activity vs control (DUB; 50 μM): inhibit

O=C(CCc1ccc(O)cc1)c1ccc(O)cc1O [DVG, 1-(2,4-dihydroxyphenyl)-3-(4-hydroxyphenyl)propan-1-one]
effect on DUB activity (summary) [1]: inhibit
Vmax ([1]; 1 μg/mL): 12.72 ± 0.78 µM/min
effect on DUB activity vs DMSO control ([1]; 1 μg/mL): significantly enhanced
Vmax ([1]; 10 μg/mL): 12.23 ± 1.30 µM/min
effect on DUB activity vs DMSO control ([1]; 10 μg/mL): significantly enhanced
Vmax ([1]; 30 μg/mL): 6.48 ± 0.54 µM/min
effect on DUB activity vs DMSO control ([1]; 30 μg/mL): significantly inhibited
effect of increasing concentration on DUB activity (normalized Vmax) [1]: negative linear effect
Km ([1]; Table 2, 1 μg/mL): 30.2 µM
Vmax ([1]; Table 2, 1 μg/mL): 0.0127 µM/min
n (Hill coefficient) ([1]; Table 2, 1 μg/mL): 2.01
Km ([1]; Table 2, 10 μg/mL): 39.2 µM
Vmax ([1]; Table 2, 10 μg/mL): 0.0122 µM/min
n (Hill coefficient) ([1]; Table 2, 10 μg/mL): 1.92
Km ([1]; Table 2, 30 μg/mL): 38.4 µM
Vmax ([1]; Table 2, 30 μg/mL): 0.00648 µM/min
n (Hill coefficient) ([1]; Table 2, 30 μg/mL): 1.51
viability at 16 h, 1 μg/mL [2]: ~90%
viability at 16 h, 30 μg/mL [2]: ~60%
viability at 16 h, 1 μg/mL [3]: ~105%
viability at 16 h, 30 μg/mL [3]: ~80%
effect on DUB activity (summary) ([4]; OPM2): enhance
Vmax ([4]; OPM2, 1 μg/mL): 23.32 ± 1.58 µM/min
effect on DUB activity vs DMSO control ([4]; OPM2, 1 μg/mL): significantly enhanced
Vmax ([4]; OPM2, 10 μg/mL): 24.76 ± 1.84 µM/min
effect on DUB activity vs DMSO control ([4]; OPM2, 10 μg/mL): significantly enhanced
Vmax ([4]; OPM2, 30 μg/mL): 315.24 ± 41.65 µM/min
effect on DUB activity vs DMSO control ([4]; OPM2, 30 μg/mL): significantly enhanced
effect of increasing concentration on DUB activity (normalized Vmax) ([4]; OPM2): exponential increase
Km ([4]; Table 2, OPM-2, 1 μg/mL): 56.4 µM
n (Hill coefficient) ([4]; Table 2, OPM-2, 1 μg/mL): 0.82
Vmax [4, 5]: 23.32
Km ([4]; Table 2, OPM-2, 10 μg/mL): 45.5 µM
n (Hill coefficient) ([4]; Table 2, OPM-2, 10 μg/mL): 1.78
Vmax [4, 6]: 24.76
Km ([4]; Table 2, OPM-2, 30 μg/mL): 89.4 µM
n (Hill coefficient) ([4]; Table 2, OPM-2, 30 μg/mL): 1.34
Vmax [4, 7]: 315.24
